Measured values as given in ChEMBL document CHEMBL5608189, “Design and synthesis of unique indole-benzosulfonamide oleanolic acid derivatives as potent antibacterial agents against MRSA” (Eur J Med Chem, 2024).
Values after ≈ are worked out from the molar mass of the structure shown. Active and inactive are the calls of the source. The rule behind the calls is not given here.

Legend:
Cell membrane [1] = assay: Disruption of cell membrane integrity in methicillin-resistant Staphylococcus aureus assessed as protein leakage at 8 times MIC incubated for 8 hrs by BCA assay; assay type: cell membranes
Staphylococcus aureus [2] = assay: Antibacterial activity against Staphylococcus aureus ATCC 29213 measured after 24 hrs by susceptibility assay; assay type: functional
Cell membrane [3] = assay: Induction of cell membrane damage in methicillin-resistant Staphylococcus aureus assessed as increase in red fluorescence in PI channel at 8 times MIC incubated for 4 hrs by Calcein-AM/PI staining based confocal microscopic analysis; assay type: cell membranes
HEK-293T = assay: Cytotoxicity against HEK293T cells assessed as reduction in cell viability upto 64 times MIC incubated for 24 hrs by CCK-8 assay; assay type: toxicity, cell-based; settings: human
Staphylococcus aureus [4] = assay: Induction of intracellular ROS accumulation in methicillin-resistant Staphylococcus aureus assessed as number of fluorescence cells at 4 times MIC incubated for 6 hrs by DCFH-DA staining based flow cytometry analysis (reference value: 3.88)
Cell membrane [5] = assay: Induction of membrane depolarization in methicillin-resistant Staphylococcus aureus assessed as increase in fluorescence intensity at 1 to 8 times MIC measured after 30 mins by DiSC3(5) dye based spectrofluorometer; assay type: cell membranes
[6] = system: Staphylococcus epidermidis; assay: Bactericidal activity against Staphylococcus epidermidis ATCC 12228 measured after 24 hrs; assay type: functional
Cell membrane [7] = assay: Induction of cell membrane in methicillin-resistant Staphylococcus aureus assessed as increase in fluorescence intensity by measuring number of PI-permeable cells at 2 times MIC measured after 2 hrs by PI staining based flow cytometry analysis (reference value: 5.71); assay type: cell membranes
Cell membrane [8] = assay: Disruption of cell membrane integrity in methicillin-resistant Staphylococcus aureus assessed as leakage of cellular content at 8 times MIC incubated for 8 hrs by TEM analysis; assay type: cell membranes
Staphylococcus aureus [9] = assay: Antibacterial activity against methicillin-resistant Staphylococcus aureus infected in female C57BL/6 mouse wound model assessed as log reduction in viable bacterial count at 30 mg/kg administered twice on wounds with 6 hrs interval and measured for 7 days; assay type: functional; settings: time 7 day
Staphylococcus aureus [10] = assay: Antibacterial activity against methicillin-resistant Staphylococcus aureus assessed as inhibition of bacterial growth at 2 to 4 times MIC measured every 2 hrs for 24 hrs by time kill assay relative to control; assay type: functional
Staphylococcus aureus [11] = assay: Antibacterial activity against methicillin-resistant Staphylococcus aureus assessed as reduction in metabolic activity at 1 to 8 times MIC measured after 24 hrs by alamar blue assay; assay type: functional, organism-based
Staphylococcus aureus [12] = assay: Antibacterial activity against Staphylococcus aureus ATCC 6538 assessed as delay in bacterial growth at 0.5 times MIC measured every 2 hrs for 24 hrs by time kill assay; assay type: functional, organism-based
Cell membrane [13] = assay: Disruption of cell membrane integrity in methicillin-resistant Staphylococcus aureus assessed as rupture of cell membrane at 8 times MIC incubated for 8 hrs by TEM analysis; assay type: cell membranes
Staphylococcus aureus [14] = assay: Induction of morphological changes in methicillin-resistant Staphylococcus aureus assessed as disruption of cellular structure at 8 times MIC incubated for 8 hrs by SEM analysis; assay type: functional, organism-based
[15] = Toxicity in female C57BL/6 mouse assessed as changes in skin tissue at 10 to 30 mg/kg administered daily for 3 days and measured on day 4 by H and E staining based microscopic analysis; assay type: organism-based; settings: in vivo, 96 h, dose 10-30 mg/kg, time 4 day
Cell membrane [16] = assay: Induction of cell membrane in methicillin-resistant Staphylococcus aureus assessed as increase in fluorescence intensity by measuring number of PI-permeable cells at 4 times MIC measured after 2 hrs by PI staining based flow cytometry analysis (reference value: 5.71); assay type: cell membranes
Staphylococcus aureus [17] = assay: Antibacterial activity against Staphylococcus aureus ATCC 6538 assessed as inhibition of bacterial growth at 1 times MIC measured every 2 hrs for 24 hrs by time kill assay; assay type: functional, organism-based
Staphylococcus aureus [18] = assay: Induction of morphological changes in methicillin-resistant Staphylococcus aureus assessed as disruption of cell membrane integrity at 8 times MIC incubated for 8 hrs by SEM analysis; assay type: functional, organism-based
[19] = system: Staphylococcus epidermidis; assay: Antibacterial activity against Staphylococcus epidermidis ATCC 12228 measured after 24 hrs by susceptibility assay; assay type: functional
Staphylococcus aureus [20] = assay: Induction of intracellular ROS accumulation in methicillin-resistant Staphylococcus aureus assessed as number of fluorescence cells at 2 times MIC incubated for 6 hrs by DCFH-DA staining based flow cytometry analysis (reference value: 3.88)
Cell membrane [21] = assay: Induction of cell membrane in methicillin-resistant Staphylococcus aureus assessed as increase in fluorescence intensity at 1 to 8 times MIC measured after 30 mins by SYTOX green dye based spectrofluorometer; assay type: cell membranes
Staphylococcus aureus [22] = assay: Induction of intracellular ROS accumulation in methicillin-resistant Staphylococcus aureus assessed as number of fluorescence cells at 1 times MIC incubated for 6 hrs by DCFH-DA staining based flow cytometry analysis (reference value: 3.88)
Staphylococcus aureus [23] = assay: Bactericidal activity against methicillin-resistant Staphylococcus aureus measured after 24 hrs; assay type: functional
Cell membrane [24] = assay: Induction of cell membrane in methicillin-resistant Staphylococcus aureus assessed as increase in fluorescence intensity by measuring number of PI-permeable cells at 8 times MIC measured after 2 hrs by PI staining based flow cytometry analysis (reference value: 5.71); assay type: cell membranes
[25] = system: Staphylococcus epidermidis; assay: Antibacterial activity against Staphylococcus epidermidis ATCC 12228 assessed as delay in bacterial growth at 0.5 times MIC measured every 2 hrs for 24 hrs by time kill assay; assay type: functional, organism-based
Staphylococcus aureus [26] = assay: Antibacterial activity against methicillin-resistant Staphylococcus aureus infected in female C57BL/6 mouse wound model assessed as reduction in wound area at 30 mg/kg administered twice on wounds with 6 hrs interval and measured for 7 days; assay type: functional, organism-based; settings: time 7.0 day
NIH3T3 = assay: Cytotoxicity against mouse NIH3T3 cells assessed as reduction in cell viability upto 64 times MIC incubated for 24 hrs by CCK-8 assay; assay type: toxicity, cell-based; settings: nih3t3, 24 h
Staphylococcus aureus [27] = assay: Antibacterial activity against Staphylococcus aureus ATCC 6538 measured after 24 hrs by susceptibility assay; assay type: functional
Staphylococcus aureus [28] = assay: Antibacterial activity against methicillin-resistant Staphylococcus aureus assessed as reduction in metabolic activity at 8 times MIC measured after 24 hrs by alamar blue assay relative to control; assay type: functional; set-up: scale not given: the % may be the effect or the level left
Staphylococcus aureus [29] = assay: Antibiofilm activity in methicillin-resistant Staphylococcus aureus assessed as inhibition of biofilm formation at 16 times MIC measured after 24 hrs by crystal violet staining based analysis relative to control; assay type: functional
[30] = system: Staphylococcus epidermidis; assay: Antibacterial activity against Staphylococcus epidermidis ATCC 12228 assessed as inhibition of bacterial growth at 1 times MIC measured every 2 hrs for 24 hrs by time kill assay; assay type: functional, organism-based
[31] = system: Staphylococcus epidermidis; assay: Antibacterial activity against Staphylococcus epidermidis ATCC 12228 assessed as inhibition of bacterial growth at 2 to 4 times MIC measured every 2 hrs for 24 hrs by time kill assay relative to control; assay type: functional
Staphylococcus aureus [32] = assay: Bactericidal activity against Staphylococcus aureus ATCC 6538 measured after 24 hrs; assay type: functional
Staphylococcus aureus [33] = assay: Resistant development in methicillin-resistant Staphylococcus aureus assessed as increase in MIC at sub-MIC measured after 20 passages; assay type: functional, organism-based
[34] = Hemolytic activity in rabbit red blood cells assessed as hemolytic rate at 128 times MIC measured after 1 hr by absorbance based method relative to control; assay type: toxicity, cell-based, Oryctolagus cuniculus, Erythrocyte; settings: rabbit red blood cells (erythrocytes), read-out: Activity

CC1(C)CC[C@]2(C(=O)NS(=O)(=O)c3ccc(Cl)cc3)CC[C@]3(C)C(=CC[C@@H]4[C@@]5(C)Cc6c([nH]c7c(C(=O)O)cccc67)C(C)(C)[C@@H]5CC[C@]43C)[C@@H]2C1
Activity (Cell membrane [1]): 168 µg/mL | MIC (Staphylococcus aureus [2]): 2 µM (≈ 1.49 µg/mL) | Activity (Cell membrane [3]): Active | Activity (HEK-293T): Non-Toxic | Activity (Staphylococcus aureus [4]): 1.91 | Activity (Cell membrane [5]): Dose-Dependent Effect | MBC [6]: 2 µM (≈ 1.49 µg/mL) | Activity (Cell membrane [7]): 11.6 | Activity (Cell membrane [8]): Active | log(activity) (Staphylococcus aureus [9]): 2.5 | inhibition (INH) (Staphylococcus aureus [10]): 100% | Activity (Staphylococcus aureus [11]): Dose-Dependent Effect | Activity (Staphylococcus aureus [12]): Active | Activity (Cell membrane [13]): Active | Activity (Staphylococcus aureus [14]): Active | Activity [15]: Non-Toxic | Activity (Cell membrane [16]): 13.5 | Activity (Staphylococcus aureus [17]): Active | Activity (Staphylococcus aureus [18]): Active | MIC [19]: 2 µM (≈ 1.49 µg/mL) | Activity (Staphylococcus aureus [20]): 1.57 | Activity (Cell membrane [21]): Dose-Dependent Effect | Activity (Staphylococcus aureus [22]): 1.96 | MBC (Staphylococcus aureus [23]): 4 µM (≈ 2.98 µg/mL) | Activity (Cell membrane [24]): 46.5 | Activity [25]: Active | Activity (Staphylococcus aureus [26]): Active | Activity (NIH3T3): Non-Toxic | MIC (Staphylococcus aureus [27]): 1 µM (≈ 0.745 µg/mL) | Activity (Staphylococcus aureus [28]): 55% | inhibition (INH) (Staphylococcus aureus [29]): 81% | Activity [30]: Active | inhibition (INH) [31]: 100% | MBC (Staphylococcus aureus [32]): 2 µM (≈ 1.49 µg/mL) | Activity (Staphylococcus aureus [33]): inactive | hemolysis at 1 h, 128 times MIC [34]: < 5%
